The target of experiment [1] is T1, P2X2/3 (Homo sapiens, UniProt P56373+Q9UBL9).
T1 sequence (Q9UBL9 1-471): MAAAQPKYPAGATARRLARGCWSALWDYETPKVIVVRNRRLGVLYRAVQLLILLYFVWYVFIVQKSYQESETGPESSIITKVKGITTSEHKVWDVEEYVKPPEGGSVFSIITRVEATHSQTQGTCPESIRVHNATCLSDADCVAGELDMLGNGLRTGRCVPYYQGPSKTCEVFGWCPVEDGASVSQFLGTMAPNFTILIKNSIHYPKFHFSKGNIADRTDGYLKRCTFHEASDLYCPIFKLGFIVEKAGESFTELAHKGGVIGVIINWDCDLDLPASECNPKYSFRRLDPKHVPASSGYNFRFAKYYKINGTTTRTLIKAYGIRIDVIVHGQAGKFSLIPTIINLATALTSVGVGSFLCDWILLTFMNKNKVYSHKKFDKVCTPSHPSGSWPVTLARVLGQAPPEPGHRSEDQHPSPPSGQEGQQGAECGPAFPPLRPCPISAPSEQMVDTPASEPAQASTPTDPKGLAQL
T1 sequence (P56373 1-397): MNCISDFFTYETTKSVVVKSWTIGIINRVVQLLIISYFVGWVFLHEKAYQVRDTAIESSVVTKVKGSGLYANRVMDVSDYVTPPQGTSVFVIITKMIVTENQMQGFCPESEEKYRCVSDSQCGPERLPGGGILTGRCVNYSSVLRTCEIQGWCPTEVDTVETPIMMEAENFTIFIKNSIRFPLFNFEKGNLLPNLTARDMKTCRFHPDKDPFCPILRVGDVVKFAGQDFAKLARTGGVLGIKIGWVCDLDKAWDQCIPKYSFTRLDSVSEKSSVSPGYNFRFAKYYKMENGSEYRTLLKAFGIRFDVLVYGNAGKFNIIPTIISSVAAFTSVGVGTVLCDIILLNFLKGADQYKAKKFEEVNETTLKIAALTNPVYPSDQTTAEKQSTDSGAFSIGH
Nature of the experiment: P2X2/3 FLIPR intracellular calcium assay. In kind it is cell-based. Conditions: agonist at EC75, species (human or rat) not given. In a few lines: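 Stable human P2X2/3 TRex293 cells (doxycycline-induced) loaded with Calcium 4 dye; compounds, 11-point half-log series from 2 mM top stock, preincubated 15 min at RT in HBSS/HEPES pH 7.4 with 1.8 mM CaCl2. Agonist added at EC75; fluorescence change versus no-compound wells gave IC50.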
In general terms: Calcium flux is commonly read through the fluorescence of an indicator in the cells.

Experiment [2] concerns the target T2, P2X3 (UniProt P56373).
T2 sequence (P56373 1-397): T1 sequence (P56373 1-397)
Put plainly: P2X3 FLIPR intracellular calcium assay. As to conditions: agonist at EC75, species (human or rat) not given. Type of experiment: cell-based. In a few lines: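 Human P2X3-HEK, human P2X2/3-TRex293, rat P2X2/3-TRex293 or rat P2X3 TRex-CHO cells loaded with Calcium 4 dye (1.8 mM probenecid, pH 7.4).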

pIC50: −log10 of the molar value. Some results are limits rather than exact numbers.

Usually pIC50 stands for the negative decadic logarithm of the IC50, by convention in mol/L. For `Cc1ccc(-c2cnc3c(-c4c(C)n[nH]c4C)cc(C(=O)N[C@@H](C)c4nnc[nH]4)cn23)s1` [Example 110], the pIC50 in experiment [1] and in experiment [2] was 7.00 to 9.00 in each case.
Take `Cc1ncc(CNC(=O)c2cc(-c3c(C)n[nH]c3C)c3ncc(-c4ccc(C)s4)n3c2)cn1` [Example 111]: the results for the pIC50 in experiment [1] and in experiment [2] were 7.00 to 9.00 and less than 5.00, respectively.
For `Cc1ccc(-c2cnc3c(-c4cnn(CC(N)=O)c4)cc(C(=O)N[C@@H](C)c4nnc[nH]4)cn23)s1` [Example 112], in that order: 5.00 to 6.00 and 6.00 to 7.00.
`Cc1ccc(CNC(=O)c2cc(N3CCC(C)CC3)c3ncc(-c4ccc(C)s4)n3c2)cn1` [Example 115]: the pIC50 in experiment [1] was 6.00 to 7.00; in experiment [2], 5.00 to 6.00.
For `Cc1cnc(CNC(=O)c2cc(N3CCC(C)CC3)c3ncc(-c4ccc(C)s4)n3c2)cn1` [Example 116], in that order: 6.00 to 7.00 and 5.00 to 6.00.
As for `CC1CCN(c2cc(C(=O)N[C@@H](C)c3nnc[nH]3)cn3c(-c4ccc(Cl)s4)cnc23)CC1` [Example 118], the pIC50 in experiment [1] and in experiment [2] was 6.00 to 7.00 throughout.
Consider `Cc1ccc(-c2cnc3c(NC4CCCCC4)cc(C(=O)N[C@@H](C)c4nnc[nH]4)cn23)s1` [Example 121], for which the pIC50 in experiment [1] and in experiment [2] was 6.00 to 7.00 in each case.
Turning to `Cc1ccc(-c2cnc3c(N4CCC(C)CC4)cc(C(=O)NCc4ccn(C)c(=O)c4)cn23)s1` [Example 128], the pIC50 in experiment [1] was 6.00 to 7.00; in experiment [2], 7.00 to 9.00.
For `Cc1ccc(-c2cnc3c(N4CCC(C)(C)CC4)cc(C(=O)N[C@@H](C)c4nnc[nH]4)cn23)s1` [Example 129], in that order: 6.00 to 7.00 and 7.00 to 9.00.
Regarding `Cc1ccc(-c2cnc3c(N4CCC(F)(F)CC4)cc(C(=O)N[C@@H](C)c4nnc[nH]4)cn23)s1` [Example 130], the pIC50 in experiment [1] and in experiment [2] was 7.00 to 9.00 throughout.
For the compound `Cc1ccc(-c2cnc3c(N4CCC(CF)CC4)cc(C(=O)N[C@@H](C)c4nnc[nH]4)cn23)s1` [Example 133], the pIC50 in experiment [1] was 6.00 to 7.00; in experiment [2], 7.00 to 9.00.
For `Cc1ccc(-c2cnc3c(N4CCC(C(F)(F)F)CC4)cc(C(=O)N[C@@H](C)c4nnc[nH]4)cn23)s1` [Example 134], in that order: 5.00 to 6.00 and 7.00 to 9.00.
As for `Cc1ccc(-c2cnc3c(NC4CCCC4)cc(C(=O)N[C@@H](C)c4nnc[nH]4)cn23)s1` [Example 135], the pIC50 in experiment [1] and in experiment [2] was 6.00 to 7.00 each time.
Regarding `Cc1csc(-c2cnc3c(N4CCC(F)(F)CC4)cc(C(=O)N[C@@H](C)c4nnc[nH]4)cn23)c1` [Example 136], the pIC50 in experiment [1] was 6.00 to 7.00; in experiment [2], 7.00 to 9.00.
For `Cc1ccc(-c2cnc3c(N4CCC(F)CC4)cc(C(=O)N[C@@H](C)c4nnc[nH]4)cn23)s1` [Example 137], in that order: 6.00 to 7.00 and 7.00 to 9.00.
`COC1CCN(c2cc(C(=O)N[C@@H](C)c3nnc[nH]3)cn3c(-c4ccc(C)s4)cnc23)C1` (stereo partly shown) [Example 138]: the pIC50 in experiment [1] is 6.00 to 7.00; in experiment [2] it was 7.00 to 9.00.
For the compound `COC1(C)CCN(c2cc(C(=O)N[C@@H](C)c3nnc[nH]3)cn3c(-c4ccc(C)s4)cnc23)CC1` [Example 139], the results for the pIC50 in experiment [1] and in experiment [2] were 6.00 to 7.00 and 7.00 to 9.00, respectively.
For the compound `COC1CCN(c2cc(C(=O)N[C@@H](C)c3nnc[nH]3)cn3c(-c4ccc(C)s4)cnc23)CC1` [Example 140], the pIC50 was 6.00 to 7.00 in experiment [1] and 7.00 to 9.00 in experiment [2].
Consider `COC1CCCN(c2cc(C(=O)N[C@@H](C)c3nnc[nH]3)cn3c(-c4ccc(C)s4)cnc23)C1` (stereo partly shown) [Example 141], for which the pIC50 was 6.00 to 7.00 in experiment [1] and 7.00 to 9.00 in experiment [2].
Consider `COC1(C)CCN(c2cc(C(=O)N[C@@H](C)c3nnc[nH]3)cn3c(-c4ccc(C)s4)cnc23)C1` (stereo partly shown) [Example 142], for which the pIC50 is 6.00 to 7.00 in experiment [1] and 7.00 to 9.00 in experiment [2].
For `CC[C@H](NC(=O)c1cc(N2CCC(F)(F)CC2)c2ncc(-c3ccc(C)s3)n2c1)c1nnc[nH]1` [Example 144], the pIC50 is 7.00 to 9.00 in experiment [1] and 6.00 to 7.00 in experiment [2].
Regarding `Cc1ccc(-c2cnc3c(N4CCC(F)(F)CC4)cc(C(=O)N[C@H](c4nnc[nH]4)C(C)C)cn23)s1` [Example 145], the negative logarithm of the IC50 (pIC50) in experiment [1] was 6.00 to 7.00; in experiment [2] it was 5.00 to 6.00.
Regarding `CC[C@H](NC(=O)c1cc(N2CCC(OC)CC2)c2ncc(-c3ccc(C)s3)n2c1)c1nnc[nH]1` [Example 146], the pIC50 in experiment [1] was 6.00 to 7.00; in experiment [2], 7.00 to 9.00.
Consider `Cc1ccc(CNC(=O)c2cc(N3CCC(C)(C(N)=O)CC3)c3ncc(-c4ccc(C)s4)n3c2)cn1` [Example 148], for which the pIC50 in experiment [1] and in experiment [2] was 7.00 to 9.00 in each case.
With `Cc1cccc(-c2cnc3c(N4CCC(C)CC4)cc(C(=O)N[C@@H](C)c4ncn[nH]4)cn23)c1` [Example 149], the pIC50 in experiment [1] is 5.00 to 6.00; in experiment [2], 6.00 to 7.00.
Take `Cc1ccccc1-c1cnc2c(N3CCC(C)CC3)cc(C(=O)NCc3ccc(C)[n+]([O-])c3)cn12` [Example 150]: the pIC50 in experiment [1] was 6.00 to 7.00; in experiment [2], 7.00 to 9.00.
Consider `Cc1ccc(CNC(=O)c2cc(-n3nnnc3C(C)C)c3ncc(-c4ccc(C)s4)n3c2)cn1` [Example 151], for which the pIC50 in experiment [1] is 6.00 to 7.00; in experiment [2], 7.00 to 9.00.
With `Cc1ccc(-c2cnc3c(-n4nnnc4C(C)C)cc(C(=O)NCc4ccc(C(F)(F)F)nc4)cn23)s1` [Example 152], the pIC50 in experiment [1] is 6.00 to 7.00; in experiment [2], less than 5.00.
In the case of `CCc1nnnn1-c1cc(C(=O)NCc2ccc(C)nc2)cn2c(-c3ccc(C)s3)cnc12` [Example 153], the figures for the pIC50 in experiment [1] and in experiment [2] were 7.00 to 9.00 and less than 5.00, respectively.
For `CCc1nnnn1-c1cc(C(=O)NCc2ccc(C3CC3)nc2)cn2c(-c3ccc(C)s3)cnc12` [Example 154], in that order: 6.00 to 7.00 and 6.00 to 7.00.
In the case of `Cc1ccc(CNC(=O)c2cc(-n3nnnc3C3CCC3)c3ncc(-c4ccc(C)s4)n3c2)cn1` [Example 155], the pIC50 in experiment [1] was 7.00 to 9.00; in experiment [2], less than 5.00.
For the compound `Cc1ccc(CNC(=O)c2cc(-n3nnnc3CC3CC3)c3ncc(-c4ccc(C)s4)n3c2)cn1` [Example 156], the pIC50 in experiment [1] is 7.00 to 9.00; in experiment [2], less than 5.00.
Consider `Cc1ccc(CNC(=O)c2cc(-n3nnnc3C)c3ncc(-c4ccc(C)s4)n3c2)cn1` [Example 157], for which the negative-log IC50 (pIC50) in experiment [1] was 6.00 to 7.00; in experiment [2] it was 7.00 to 9.00.
For `CCCc1nnnn1-c1cc(C(=O)NCc2ccc(C)nc2)cn2c(-c3ccc(C)s3)cnc12` [Example 158], in that order: 7.00 to 9.00 and less than 5.00.
Take `Cc1ccc(-c2cnc3c(-n4nnnc4C(C)C)cc(C(=O)NC(C)c4cnccn4)cn23)s1` (stereo not shown) [Example 159]: the values for the pIC50 in experiment [1] and in experiment [2] were 5.00 to 6.00 and 6.00 to 7.00, respectively.
`Cc1ccc(-c2cnc3c(-n4nnnc4C4CCC4)cc(C(=O)NC(C)c4cnccn4)cn23)s1` (stereo not shown) [Example 160]: the pIC50 was 6.00 to 7.00 in experiment [1] and less than 5.00 in experiment [2].
As to `Cc1ccc(-c2cnc3c(-n4nnnc4C4CCC4)cc(C(=O)NCc4ccn(C)c(=O)c4)cn23)s1` [Example 161], the pIC50 in experiment [1] is 7.00 to 9.00; in experiment [2], less than 5.00.
In the case of `CCc1nnnn1-c1cc(C(=O)NC(C)c2cnccn2)cn2c(-c3ccc(C)s3)cnc12` (stereo not shown) [Example 162], the pIC50 in experiment [1] is 5.00 to 6.00; in experiment [2], 7.00 to 9.00.

(Values after US10316039B2, “P2X3 and/or P2X2/3 compounds and methods” (Asana Biosciences, LLC, priority 2013, dated 2019).)
